Reference: patent US5273991A, “Imidazole-containing compositions and methods of use thereof analogs of distamycin” (Research Corporation Technologies, Inc., priority 1992, dated 1993)
Like-named read-outs stand apart in the source and are kept apart here. One block for each compound: values may come before it.

What was measured:
[1] = system: calf thymus DNA; assay: ethidium displacement assay, calf thymus DNA; type: binding
Excerpt: (§1) The ethidium displacement assay is based on the fact that ethidium binding to DNA causes a large (approximately 25 fold) florescence enhancement as a result of the hydrophobic environment surrounding the ethidium molecule. Displacement of ethidium results in decreased fluorescence, and thus binding constants of drugs to DNA can be estimated and compared by measuring the loss of fluorescence as a function of added drug. The drug concentration which produces 50% inhibition of florescence is approximately inversely proportional to the apparent binding constant.
(§2) The relative DNA binding constants (Kapp) of distamycin and Compounds 6-10 to calf thymus DNA, T4 coliphage DNA, poly(dAdT) and poly(dGdC) were determined using the ethidium displacement assay (Morgan et al., 1979). The Kapp of ethidium bromide (Debart et al., 1989) is included for comparison. 25 μL of a 2A260 DNA solution was added to 2 mL of ethidium bromide buffer (250 μL of 1.3 mM ethidium bromidestock, 314.9 mg Tris-HCl, 60.8 mg Tris base and 930/mg of Na2 EDTA.2H2 O in 250 ml H2 O) pH 7.4 and the maximum fluorescence was measured (excitation wavelength=546 nm, emission wavelength=600 nm) at ambient temperature.
(§3) DNA solutions of 2A260 were prepared as follows: T4 coliphage DNA: 10 units of DNA were dissolved in 1 mL of 10 mM sodium phosphate (pH 7.1) and 0.25 mM EDTA buffer to give a 10A260 solution. 0.3 mL of the stock solution were diluted to 1.5 mL with 10 mM sodium phosphate (pH 7.1) and 0.25 mM EDTA buffer to give a 2A260 solution. Calf thymus DNA: 100 units of DNA were dissolved in 5 mL of 10 mM sodium phosphate (pH 7.1) and 0.25 mM EDTA buffer to give a 20A260 solution. 1.5 mL of the stock solution were diluted to 15 mL with 10 mM sodium phosphate (pH 7.1) and 0.25 mM EDTA buffer to give a 2A260 solution. Poly(dA-dT) and Poly(dG-dC) DNA: 100 units of DNA were dissolved in 10 mL of 10 mM sodium phosphate pH 7.1) and 0.25 mM EDTA buffer to give a 10A260 solution. 3 mL of the stock solution were diluted to 15 mL with 10 mM sodium phosphate (pH 7.1) and 0.25 mM EDTA buffer to give a 2A260 solution.
(§4) Aliquots of 10 mM stock drug solution (1 mg of drug to be tested was dissolved with 1 mole equivalent of 0.1M HCl, and then diluted with appropriate volume of distilled water to make a 10 mM solution) were then added to the fluorescing solution and the florescence measured after each addition until a 50% reduction of fluorescence occurred. If the 10 mM stock solution lowered the % fluorescence too quickly, the stock solution was further diluted to 1 mM prior to titration. The apparent binding constant was then calculated from this equation: KEtBr [EtBr]=Kapp [drug], where [drug]=the concentration of drug at a 50% reduction of fluorescence and KEtBr [1×10^7 M^-1 for calf thymus and coliphage T4 DNA^18, 9.5×10^6 M^-1 for poly(dA.dT)^30, and 9.9×10^6 M^-1 for poly(dG.dC)^30 ] and [EtBr] were known. The concentration of ethidium bromide was 1.3 μM. The Kapp values are shown in Table I. In a separate experiment, the Kapp of Compound 5 for calf thymus DNA and poly[dGdC] were determined to be 0.3×10^5 M^-1 and 2.6×10^5 M^-1, respectively. The error in these measurements is ±[…].

[2] = biological target: poly(dGdC); assay: ethidium displacement assay, poly(dGdC); type: binding
Excerpt: as §1, §2, §3, §4

[3] = system: human chronic myelogenous leukemic K562 cells; assay: growth inhibition of K562 cells (MTT viability assay); type: cell-based; details: for IC50: Homo sapiens, K562, 1 hour drug exposure at 37° C., 5-6 days, MTT; for activity against the growth of K562 cells: in words
Method: The ability of the compounds of the present invention to inhibit the growth of human chronic myelogenous leukemic K562 cells was determined as follows.
The incubation was terminated by centrifugation (5 minutes, 300 g) and the cells washed once with drug-free medium.
Following the appropriate drug treatment, the cells were transferred to 96-well microtiter plates, 10^4 cells per well, 8 wells per sample. Plates were then kept in the dark at 37° C. in a humidified atmosphere containing 5% CO2. […] Following incubation of the plates of 5-6 days (to allow control cells to increase in the number by 10 fold) 20 μL of a 5 mg/mL solution of MTT in phosphate buffered saline was added to each well and the plates further incubated for 5 h. The plates were then centrifuged for 5 minutes at 300 g and the bulk of the medium pipetted from the cell pellet leaving 10-20 μL per well. 200 μL DMSO was added to each well and the samples agitated to ensure complete mixing. The optical density was then read at a wavelength of 550 nm on a Titertek Multiscan ELISA plate reader and the dose-response curve constructed.

[4] = system: calf thymus DNA; assay: UV-dialysis study (covalent retention on DNA); type: binding; details: 24 h incubation at room temperature; 20-26 hours dialysis; pH 7.1
Excerpt: The compounds of the present invention are useful as anticancer agents. Although the biological mechanism which results in anticancer activity is not fully understood, the compounds of the subject invention are capable of binding to the minor groove of double-stranded DNA and, unlike distamycin and netropsin, can tolerate GC-containing DNA. Accordingly, the DNA alkylating moiety of the compounds of the present invention can be directed to the minor groove of GC-containing regions of double-stranded DNA. One of ordinary skill in the art can determine the DNA alkylating ability of the compounds of the present invention by art-recognized methods. The formation of an irreversible adduct of DNA and a compound of the present invention is defined herein as a measure of the DNA alkylating ability of the subject compounds. The formation of an irreversible adduct can be determined by art-recognized methods. For example, a solution containing DNA and a compound of the present invention can be exhaustively dialyzed under conditions which allow unbound drug to pass out of the dialysis bag. The percentage of the compound which has been retained in the dialysis bag is considered to be covalently bound to the DNA, and is determined by comparing the UV absorption spectrum of the compound/DNA solution before and after exhaustive dialysis.
0.5 mL of 2A260 calf thymus DNA was diluted to 2 mL with 10 mM sodium phosphate and 0.25 mM EDTA buffer, pH 7.1. Four aliquots (3 μL each) of a 1 mM stock drug solution in distilled water were added to the DNA solution and a UV absorption spectrum (300-320) was recorded after each addition. The drug/DNA solution was incubated for 24 h at room temperature and another UV spectrum was recorded. The drug/DNA solution was then transferred into a dialysis bag and the dialysis bag was suspended in 30 mL of 10 mM sodium phosphate and 0.25 mM EDTA buffer, pH, 7.1, at room temperature. After 20-26 hours, the […] spectrum of 2 mL of the buffer outside the dialysis bag was recorded. The absorbance of the drug peak was converted to concentration by the Beer-Lambert equation, and the data was presented as percent initial concentration. Under these conditions, substantial amounts of Compounds 6 (55±5%), 7 (45±5%), 8 (85±5%) and 10 (100±5%) are retained in the dialysis bag, while only 29±5% of a formamido analog^1 is retained.

[5] = system: T4 coliphage DNA; assay: ethidium displacement assay, T4 coliphage DNA; type: binding; details: ± 0.02 × 10^5 M^-1, pH 7.4
Excerpt: as §1
The apparent binding constants for T4 coliphage DNA are an indicator of the minor groove selectivity of the compounds of the present invention. The major groove of T4 coliphage DNA is blocked by α-glycosylation of the 5-hydroxymethylcytidine residues; therefore, the non-intercalating agents that bind to T4 coliphage DNA must interact in the minor groove [Lown (1982) Acc. Chem. Res., 15, 381].
as §2, §3, §4

[6] = biological target: poly(dAdT); assay: ethidium displacement assay, poly(dAdT); type: binding; details: ± 0.02 × 10^5 M^-1, pH 7.4
Excerpt: as §1, §2, §3, §4

[7] = system: minor groove of B-DNA; details: cited from earlier work
[8] = system: calf thymus DNA; details: literature constant, read-out: KEtBr; cited from earlier work
[9] = system: T4 coliphage DNA; details: literature constant, read-out: KEtBr; cited from earlier work
[10] = biological target: poly(dAdT); details: poly(dA.dT); literature constant; read-out: KEtBr (converted); cited from earlier work
[11] = biological target: poly(dGdC); details: poly(dG.dC); literature constant; read-out: KEtBr (converted); cited from earlier work

SMILES: CN(C)NC(=O)c1nc(NC(=O)c2nc(NC(=O)c3ccc(N(CCCl)CCCl)cc3)cn2C)cn1C [Compound 5, N-(N',N'-dimethylamino)-1-methyl-4-{4-[4,4-bis(2-chloroethyl)aminobenzamido]-1-methylimidazole-2-carboxamido}imidazole-2-carboxamide]
Kd ([1]; separate experiment, read-out: Kapp (converted)): 33.3 µM
Kd ([2]; poly[dGdC], separate experiment, read-out: Kapp (converted)): 3.85 µM

SMILES: CN(C)NC(=O)c1nc(NC(=O)c2nc(NC=O)cn2C)cn1C [Compound 13]
IC50 [3]: > 500 µM
activity against the growth of K562 cells [3]: no activity

SMILES: CN(C)CCNC(=O)c1nc(NC(=O)c2nc(NC=O)cn2C)cn1C [Compound 14]
IC50 [3]: > 500 µM
activity against the growth of K562 cells [3]: no activity

SMILES: Cn1cc(NC(=O)c2cc(NC(=O)c3cc(NC=O)cn3C)cn2C)cc1C(=O)NCCC(=N)N [Distamycin, distamycin]
Association constant Kapp ([1]; ± 0.02 × 10^5 M^-1, pH 7.4): 774000 M⁻¹
Association constant Kapp [5]: 640000 M⁻¹
Association constant Kapp [6]: 3.48e+07 M⁻¹
Association constant Kapp ([2]; poly(dGdC), ± 0.02 × 10^5 M^-1, pH 7.4): 203000 M⁻¹
specific nucleotide sequence bound / preferred [7]: (AT)5

SMILES: CC[n+]1c(-c2ccccc2)c2cc(N)ccc2c2ccc(N)cc21 [EtBr, ethidium bromide]
Kd [8]: 100 nM
Kd [9]: 100 nM
Kd [10]: 105 nM
Kd [11]: 101 nM

SMILES: Cn1cc(NC(=O)c2cc(NC(=O)CN=C(N)N)cn2C)cc1C(=O)NCCC(=N)N [Netropsin, netropsin]
specific nucleotide sequence bound / preferred [7]: (AT)4

More lines, main results first:

IC50 [3]: 350 µM
SMILES: CN(C)CCNC(=O)c1nc(NC(=O)c2nc(NC(=O)CCl)cn2C)cn1C [Compound 11, N-(N',N'-dimethylaminoethyl)-1-methyl-4-[4-(chloroacetamido)-1-methylimidazole-2-carboxamido)imidazole-2-carboxamide]

IC50 [3]: 400 µM
SMILES: CN(C)CCNC(=O)c1nc(NC(=O)c2nc(NC(=O)CBr)cn2C)cn1C [Compound 12, N-(N',N'-dimethylaminoethyl)-1-methyl-4-[4-(bromoacetamido)-1-methylimidazole-2-carboxamido]imidazole-2-carboxamide]

IC50 [3]: > 500 µM
SMILES: CN(C)CCNC(=O)c1nc(NC(=O)c2nc(NC(=O)c3nc(NC=O)cn3C)cn2C)cn1C [Compound 15, N-(N',N'-dimethylaminoethyl)-1-methyl-4-{1-methyl-4-[4-formamido-2-methylimidazole-2-carboxamido]imidazole-2-carboxamido}imidazole-2-carboxamide]
retained in the dialysis bag (percent initial concentration) [4]: 29±5%
activity against the growth of K562 cells [3]: no activity
